Assay results taken from patent US4748246A, “Pyrazolo(4,3-c)quinolines” (American Home Products Corporation, priority 1987, dated 1988).

Columns and labels:
[1] = test system: rat carrageenan paw edema; test: rat carrageenan paw edema assay; type: in vivo, rat (male Sprague-Dawley); conditions: for ED50: Rattus norvegicus, po, 3 h, read-out: Oral ED50 (95% C.L.); for % Inhibition of edema at 50 mg/kg (peroral): 1 hour prior to carrageenan, edema at 3 hours
Protocol: The compounds of the invention are tested in the rat carrageenan paw edema assay to determine their ability to inhibit the acute inflammatory response. This assay is carried out as follows: 140-180 gm male Sprague-Dawley rats, in groups of 6 animals, are injected subcutaneously in the right paw with 0.1 ml of 1% carrageenan at zero time. Mercury plethysmographic readings (ml) of the paw are made at zero time and 3 hours later. Test compounds are suspended or dissolved in 0.5% methylcellulose and given perorally 1 hour prior to carrageenan administration. The increase in paw volume (edema in ml.) produced by the carrageenan is measured. […] Unpaired Student's t-test is used to determine statistical significance.

[2] = test system: IL 1-induced release of neutral protease from rabbit articular chondrocytes; test: inhibition of IL 1-induced release of neutral protease from rabbit articular chondrocytes (azocoll neutral protease assay); type: cell-based; conditions: Oryctolagus cuniculus, Chondrocyte, human IL 1, 24 h, ± S.D., read-out: % Inhibition of Protease Secretion
Protocol: The ability of the compounds of the inventions to inhibit interleukin 1 is measured by the ability of the test compounds to inhibit the IL 1-induced release of neutral protease from rabbit articular chondrocytes.
This assay is carried out as follows:
Isolation of rabbit chondrocytes:
Male New Zealand White rabbits are anesthetized with 50 mg/kg of ketamine (i.m.) and killed by an intracardiac injection of 3 mls. of Nembutal. The knee joints of both legs are resected and the articular surfaces are exposed. Cartilage slices are obtained using a scalpel and are placed in a tissue culture dish (100 mm diameter) containing 10 mls of Hank's balanced salt solution (HBSS). The chondrocytes within the cartilage slices are then liberated by a series of enzyme digestions. The slices are incubated for 10 min. at 37° C. in 0.05% hyaluronidase (Sigma H-3884), rinsed with HBSS and incubated with 0.2% trypsin (Sigma T-2395) for 10 min. at 37° C. The slices are rinsed again and incubated for 10 mins. at 37° C. with 1.2% collagenase (Sigma C-5138). The slices are then rinsed again with HBSS and resuspended in 10 ml of Ham's F-12 medium containing 10% fetal bovine calf serum (FCS) and 0.2 % collagenase and incubated overnight at 37° C. in a 5% CO2 incubator. The next day, the medium containing the digested cartilage fragments and liberated chondrocytes is transferred to a 15 ml centrifuge tube and the cells are collected by centrifugation and washed twice and resuspended in Ham's F-12 medium. The cells are then plated into 24-well tissue culture plates (2×10^5 cells/well) and incubated at 37° C. until confluent (usually 4-6 days).
Stimulation of chondrocytes and drug treatment:
The confluent chondrocytes are rinsed twice with serum-free Ham's F-12 medium and 1 ml is added to each well. Fifty μl of purified human IL 1 (100 Units/ml; Genzyme Corporation, Boston, MA) is then added to stimulate these cells to secrete neutral protease. To measure drug effects, the cells are treated with test compound 10 min. prior to addition of IL 1. The standard screening dose is 10 μM. Twenty-four hours after IL 1 stimulation, supernatant fluids are collected and assayed for neutral protease activity.
The neutral protease activity of chondrocyte supernatant fluids is determined by their ability to degrade an insoluble protease substrate, azocoll (Sigma). Supernatants are treated for 10 min. at room temperature with 350 μM p-aminophenylmurcuric acetate to activate the latent enzyme. Three hundred μl of supernatant is then mixed with 500 μl of a 20 mg/ml suspension of azocoll and incubated at 37° C. for 18-24 hrs. with gentle rocking. The mixtures are centrifuged and the amount of substrate hydrolyzed is determined by measuring the absorbance of the supernatant at 520 nm.
Drug effects are calculated as the % change in enzyme activity (absorbance)by supernatants from drug-treated chondrocytes relative to enzyme activity of supernatants from vehicle-treated chondrocytes as follows:
% Inhibition of Protease Secretion= [formula]

Row | Structure (SMILES) | inhibition at 10 µM [2] | further results
1 | CC(=O)Oc1ccccc1C(=O)O [Aspirin, reference compound] | – | ED50 [1]: 145 mg/kg
2 | CCOC(=O)c1ccc(N(CCc2nc3cc(Cl)ccc3c3nn(-c4ccccc4)cc23)C(=O)Nc2ccc(Cl)cc2)cc1 [Example 11, 4-[[[(4-chlorophenyl)amino]carbonyl][2-(7-chloro-2-phenyl-2H-pyrazolo[4,3-c]quinolin-4-yl)ethyl]amino]benzoic acid ethyl ester, hydrate] | 47% | –
3 | N#Cc1ccc(NCCc2nc3cc(Cl)ccc3c3nn(-c4ccccc4)cc23)cc1 [Example 1, 4-[[2-(7-Chloro-2-phenyl-2H-pyrazolo-[4,3-c]quinolin-4-yl)ethyl]amino]benzonitrile] | 88 ± 2% | % Inhibition of edema at 50 mg/kg (peroral) [1]: 38%; inhibition at 0.1 µM [2]: 60 ± 13%; inhibition at 1 µM [2]: 75 ± 5%
4 | N#Cc1ccc(N(CCc2nc3cc(Cl)ccc3c3nn(-c4ccccc4)cc23)C(=O)Nc2ccccc2)cc1 [Example 8, N-[2-(7-chloro-2-phenyl-2H-pyrazolo[4,3-c]quinolin-4-yl)ethyl]-N-(4-cyanophenyl)-N'-phenylurea] | ≤ 20% | –
5 | Clc1ccc2c(c1)nc(CCNc1ccc3ccccc3n1)c1cn(-c3ccccc3)nc12 [Example 4, 7-Chloro-2-phenyl-N-(2-quinolinyl)-2H-pyrazolo[4,3-c]quinoline-4-ethanamine] | ≤ 20% | –
6 | CCOC(=O)c1ccc(NCCc2nc3cc(Cl)ccc3c3nn(-c4ccccc4)cc23)cc1 [Example 2, 4-[[2-(7-Chloro-2-phenyl-2H-pyrazolo[4,3-c]quinolin-4-yl)ethyl]amino]benzoic acid ethyl ester] | 85 ± 3% | % Inhibition of edema at 50 mg/kg (peroral) [1]: 32%; inhibition at 0.1 µM [2]: 41 ± 10%; inhibition at 1 µM [2]: 70 ± 4%
7 | Clc1ccc2c(c1)nc(CCNc1cnccn1)c1cn(-c3ccccc3)nc12 [Example 6, 7-Chloro-2-phenyl-N-(2-pyrazinyl)-2H-pyrazolo-[4,3-c]quinoline-4-ethanamine, hemihydrate] | 60% | –
8 | CS(=O)(=O)c1ccc(NCCc2nc3cc(Cl)ccc3c3nn(-c4ccccc4)cc23)cc1 [Example 12, 7-Chloro-N-[(4-methylsulfonyl)phenyl]-2-phenyl-2H-pyrazolo[4,3-c]quinoline-4-ethanamine] | 41% | –
9 | Fc1ccc(NCCc2nc3cc(Cl)ccc3c3nn(-c4ccccc4)cc23)cc1 [Example 5, 7-Chloro-N-(4-fluorophenyl)-2-phenyl-2H-pyrazolo[4,3-c]quinoline-4-ethanamine] | 14% | –
10 | CCOC(=O)c1ccc(N(CCc2nc3cc(Cl)ccc3c3nn(-c4ccccc4)cc23)C(=O)Nc2ccccc2)cc1 [Example 9] | 49% | –
11 | COc1ccc2c(c1)c(CC(=O)O)c(C)n2C(=O)c1ccc(Cl)cc1 [Indomethacin, reference compound] | – | ED50 [1]: 3.7 mg/kg
12 | Clc1ccc2c(c1)nc(CCNc1ncccn1)c1cn(-c3ccccc3)nc12 [Example 3, 7-Chloro-2-phenyl-N-(2-pyrimidinyl)-2H-pyrazolo[4,3-c]quinoline-4-ethanamine] | 79 ± 29% | inhibition at 1 µM [2]: 22%
13 | N#Cc1ccc(N(CCc2nc3cc(Cl)ccc3c3nn(-c4ccccc4)cc23)C(=O)Nc2ccc(Cl)cc2)cc1 [Example 10, N'-(4-Chlorophenyl)-N-[2-(7-chloro-2-phenyl-2H-pyrazolo[4,3-c]quinolin-4-yl)ethyl]-N-(4-cyanophenyl)urea] | 51% | –
14 | CCOC(=O)c1ccc(NCCc2nc3ccccc3c3nn(-c4ccccc4)cc23)cc1 [Example 7, 4-[[2-(2-phenyl-2H-pyrazolo[4,3-c]quinolin-4-yl)ethyl]amino]benzoic acid ethyl ester] | 83% | –
